Here are results for two compounds from PMC5460155 (ACS chemical neuroscience, 2017).

SMILES strings stand for the structures. Numbering of substitutions follows the chain as printed. “Also recorded” adds a separate entry of the source.

The subject of data set [1] is mice. The following applies: cited from earlier work.
Data set [2] has as its system mice. Nature of the data set: Amphetamine-induced hyperlocomotion in mice. It is filed as in vivo, mouse. The following applies: 1–10 mg/kg i.p., amphetamine 3 mg/kg s.c.
The target in data set [3] is T1, mouse M1 (Mus musculus, UniProt P12657).
T1 sequence (P12657 1-460): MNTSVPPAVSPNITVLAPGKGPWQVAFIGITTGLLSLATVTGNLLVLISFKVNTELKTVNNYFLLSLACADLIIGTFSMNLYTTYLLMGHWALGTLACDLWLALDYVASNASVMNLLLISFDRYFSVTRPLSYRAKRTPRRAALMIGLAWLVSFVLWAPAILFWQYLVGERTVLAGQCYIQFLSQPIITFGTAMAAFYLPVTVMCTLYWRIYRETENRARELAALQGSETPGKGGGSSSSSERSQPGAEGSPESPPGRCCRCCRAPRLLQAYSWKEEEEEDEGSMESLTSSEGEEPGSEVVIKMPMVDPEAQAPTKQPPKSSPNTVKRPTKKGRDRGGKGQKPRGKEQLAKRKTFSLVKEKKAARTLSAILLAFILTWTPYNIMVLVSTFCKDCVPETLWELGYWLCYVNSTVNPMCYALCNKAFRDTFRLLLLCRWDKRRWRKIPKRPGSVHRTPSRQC
Nature of the data set: Calcium mobilization, mM1-CHO cells, PAM mode. The class given is cell-based. Background: Calcium flux is commonly read through the fluorescence of an indicator in the cells.

Data set [4] deals with 68 GPCRs, ion channels, and transporters. The experiment in a line: Eurofin Lead Profiling radioligand binding panel. The settings on record: 10 μM, 68 targets.
Data set [5] has as its target T2, M1 (Homo sapiens, UniProt P11229).
T2 sequence (P11229 1-460): T1 sequence (P12657 1-460) with V5A, S254T, K320R, G337A, V413I
The experiment in a line: [3H]-NMS competition binding, human M1 membranes.

Data set [6] deals with mice. The experiment in a line: Modified Irwin Toxicology Battery. The class given is in vivo. The settings on record: 100 mg/kg i.p.
For data set [7], the target named is T3, rat M1 (Rattus norvegicus, UniProt P08482).
T3 sequence (P08482 1-460): T1 sequence (P12657 1-460) with P309S
The experiment in a line: Calcium mobilization, rM1-CHO cells, agonist mode. The class given is cell-based.

Data set [8] concerns the target T4, hM1 (Homo sapiens, UniProt P11229).
T4 sequence (P11229 1-460): T1 sequence (P12657 1-460) with V5A, S254T, K320R, G337A, V413I
Nature of the data set: Acetylcholine affinity shift at hM1. The class given is binding.

Data set [9] has as its target T1, mouse M1. Nature of the data set: Mouse M1 agonist activity, calcium mobilization. The class given is cell-based.
For data set [10], the target named is T2, M1. The experiment in a line: Calcium mobilization, hM1-CHO cells, agonist mode. It is filed as cell-based.
Data set [11] concerns rats. The experiment in a line: Novel object recognition task. The settings on record: rats, 1, 3, and 10 mg/kg i.p., 30 min pretreatment, assessed 24 h later. The class given is in vivo, rat.
For data set [12], the system named is C57Bl/6 mice. Nature of the data set: Spontaneous locomotor activity. It is filed as in vivo, mouse. The following applies: 1–10 mg/kg i.p.
Data set [13] has as its target T2, M1. The experiment in a line: Discover X bias panel: M1 receptor internalization. It is filed as cell-based.
Data set [14] is described as follows: Mouse brain:plasma partition, discrete i.p. dose. The settings on record: male, C57BL/6J, in vivo, ip, 10 mg/kg.
In data set [15] the test system is SD rats. Nature of the data set: Amphetamine-induced hyperlocomotion in rats. The class given is in vivo, rat. The following applies: 30 mg/kg i.p., amphetamine 1 mg/kg s.c.
Data set [16] deals with T3, rat M1. The experiment in a line: Calcium mobilization, rM1-CHO cells, PAM mode. The class given is cell-based. The following applies: EC20 acetylcholine.
In data set [17] the target is T2, M1. Nature of the data set: Calcium mobilization, hM1-CHO cells, PAM mode. It is filed as cell-based.
The subject of data set [18] is C57Bl/6 mice. Nature of the data set: Behavioral convulsions, modified Racine scale. It is filed as in vivo, mouse. The settings on record: 100 mg/kg i.p., 3 h, modified Racine scale (0–5).
Data set [19] addresses T2, M1. The experiment in a line: Discover X bias panel: β-arrestin recruitment assay. The class given is cell-based.
The nature of data set [20]: Mouse brain concentrations after i.p. dosing. The settings on record: 100 mg/kg i.p., mice. The class given is in vivo.

Turning to `CCCCCCOc1nsnc1C1=CCCN(C)C1` [xanomeline], the “attenuation of amphetamine-induced activity in M4 knockout mice” value in data set [1] is “absent”.
For orientation: EC50 means the midpoint of the concentration-response curve. By Kp is commonly meant tissue or fluid exposure divided by exposure in the circulation. For the compound `Cn1cc(-c2ccc(Cn3cc(C(=O)N[C@H]4CCCC[C@@H]4O)c4c(F)cc(F)cc43)cn2)cn1` [Compound 28a, 4,6-Difluoro-N-(1S,2S)-2-hydroxycyclohexyl-1-((6-(1-methyl-1H-pyrazol-4-yl)pyridine-3-yl)methyl)-1H-indole-3-carboxamide], the “reversal of amphetamine-induced hyperlocomotion (AHL)” value in data set [2] is on record as “did not reverse AHL in mice”; in [15] it was “no effect”. Further, the EC50 was 155 nM in data set [3]; 3980 nM in [7]; 450 nM in data set [9]; 4.8 µM in data set [10] (hM1 EC50 (μM), agonist, hM1-CHO cells); 4.68 µM in data set [10] (hM1 pEC50, agonist, hM1-CHO cells, ± SEM); greater than 10000 nM in [13]. For the same compound, the EC50 was 141 nM in data set [16] (rM1 EC50 (nM), PAM mode); 138 nM in [16] (rM1 pEC50, PAM mode, ± SEM); 214 nM in data set [17]. In addition, in data set [3] (PAM mode, mM1-CHO cells, EC20 acetylcholine, ± SEM), the “mACh Max (%)” value amounted to 79 ± 1%. In addition, the “percent inhibition in ancillary pharmacology panel” value in [4] was no more than 50%. The “displacement of orthosteric radioligand [3H]-NMS” value in data set [5] was “slight inhibition of binding of the orthosteric radioligand at high concentrations; also recorded: weakly displaced”. Besides, the “adverse effects, Modified Irwin Toxicology Battery” value is on record as “no pronounced cholinergic effects” in data set [6] (100 mg/kg) and “did not cause significant observable adverse effects” in [6] (listed as VU6004256, 100 mg/kg). For the same compound, in data set [7] (agonist mode, rM1-CHO cells, ± SEM), the “rACh Max (%), agonist” value is given as 68 ± 9%. The “fold shift in ACh potency vs DMSO control” value in data set [8] (0.3 μM PAM) is 11 fold; in data set [8] (1.0 μM PAM), 58 fold; in [8] (10 μM PAM) it was 178 fold. The “mouse M1 agonist % ACh Max” value in [9] (agonist activity at mouse M1) was 86%. In addition, the “hACh Max (%), agonist” value in data set [10] (hM1-CHO cells, ± SEM) amounted to 56 ± 14%. In addition, the “fold weaker M1 agonist than 16” value in data set [10] (human and rat M1) is reported as 7 fold. The “recognition memory, novel object recognition” value in data set [11] is listed as “dose-dependently enhanced recognition memory”. Moreover, the results for the “effect on spontaneous (basal) locomotor activity” value in [12] and in data set [12] (listed as VU6004256) were “significantly less effect on spontaneous locomotor activity” and “decreased locomotor activity at the highest dose of 10 mg/kg”, respectively. In addition, the Kp at 0.25 h in data set [14] turned out to be 4.84. Further, the Kp uu at 0.25 h in data set [14] stood at 2.61. In addition, the “rACh Max (%)” value in [16] (PAM mode, ± SEM) turned out to be 92 ± 4%. The “hACh Max (%)” value in data set [17] (PAM mode, hM1-CHO cells, EC20 acetylcholine, ± SEM) was determined as 86±1%. Further, the behavioral convulsions entry in [18] is listed as “did not display observable behavioral seizure activity; also recorded: neither difluoro indole 28a nor 28c (both regioisomeric N-Me pyrazoles) induced behavioral convulsions”. Further, the “M1 PAM potency and efficacy in β-arrestin recruitment” value in [19] is “comparable M1 PAM potency and efficacy”. For the same compound, the “total maximum brain concentration” value in [20] was 49.9 µM. The “unbound maximum brain concentration” value in data set [20] is reported as 649 nM.
